According to patent publication US7465754B1, “Method of potentiating chemotherapy and treating solid tumors” (Wyeth, priority 1999, dated 2008):

Assays:
[1] = test system: tumor cell growth in vitro; experiment: Tumor cell growth in vitro / cell culture; format: cell-based
[2] = test system: human non small-cell lung carcinoma (NSCLC) line H-157; experiment: H-157 NSCLC xenograft in nude mice, tumor growth; format: in vivo
Description: The potentiating effect of bioresponse modifiers on chemotherapeutic agents was evaluated in an in vivo standard pharmacological test procedure in which a human non small cell type lung cancer (NSCLC) cell line was engrafted onto the flanks of immunodeficient nude mice. The following briefly describes the test procedure used and results obtained. [R-(R*,R*)]-N-[(R)-6-Carboxy-N^2-[[2-carboxy-1-methyl-2-[(1-oxoheptyl)amino]ethoxy]carbonyl]-L-lysyl]-alanine was used as a representative bioresponse modifier and paclitaxcel was used a representative chemotherapeutic agent.
Balb-c nu/nu female mice were obtained from Charles River Laboratories at 6-8 weeks of age and used experimentally at 8-10 weeks of age. The human non small-cell lung carcinoma (NSCLC) line H-157 was obtained from the American tissue culture collection (ATCC) (Bethesda, Md.). Cells were grown in RPMI medium with 10% fetal bovine serum.
Mice were injected subcutaneously with 7.5×10^6H-157 NSCLC tumor cells. Tumors were allowed to develop until they reached a size of 80-150 mg. Tumor size was determined using vernier calipers to measure length (l) and width (w). The tumor volume was estimated using the formula l×w^2/2. The volume in mm^3 can be converted to milligrams directly assuming unit density. Seven days after injection, mice were randomized (day 0) into groups of 10 with a mean tumor mass of 100 mg. Treatment groups received paclitaxcel (30 mg/kg) on day 0 and either vehicle or [R-(R*,R*)]-N-[(R)-6-Carboxy-N^2-[[2-carboxy-1-methyl-2-[(1-oxoheptyl)amino]ethoxy]carbonyl]-L-lysyl]-alanine (100 μg/kg) on days 1 and 8.

Row | SMILES | potentiation of the growth inhibitory effect of paclitaxcel in cell culture ([1]; cell culture, with paclitaxcel) | direct inhibition of tumor cell growth in vitro ([1]; in vitro) | % Suppression (Day 7) ([2]; Day 7, versus untreated control, paclitaxcel 30 mg/kg day 0, vehicle or CI 100 μg/kg days 1 and 8) [%] | Tumor size (mg) Day 7 ([2]; Day 7, paclitaxcel 30 mg/kg day 0, vehicle or CI 100 μg/kg days 1 and 8, mean ± standard deviation, 5 evaluations, 10 mice/group) | % Suppression (Day 14) ([2]; Day 14, versus untreated control, paclitaxcel 30 mg/kg day 0, vehicle or CI 100 μg/kg days 1 and 8) [%] | Tumor size (mg) Day 14 ([2]; Day 14, paclitaxcel 30 mg/kg day 0, vehicle or CI 100 μg/kg days 1 and 8, mean ± standard deviation, 5 evaluations, 10 mice/group) [mg] | tumor cell growth (in words) ([2]; day 7, Student's t test) | tumor growth (in words) ([2]; day 14)
1 | CCCCCCC(=O)N[C@@H](C(=O)O)[C@@H](C)OC(=O)N[C@@H](CCC[C@@H](N)C(=O)O)C(=O)NC(C)C(=O)O (relative stereo) [CI, [R-(R*,R*)]-N-[(R)-6-carboxy-N^2-[[2-carboxy-1-methyl-2-[(1-oxoheptyl)amino]ethoxy]carbonyl]-L-lysyl]-alanine] | nor does it potentiate the growth inhibitory effect of paclitaxcel in cell culture | does not directly inhibit tumor cell growth in vitro |  |  |  |  |  | 
2 | CC(=O)O[C@H]1C(=O)[C@@]2(C)[C@H]([C@H](OC(=O)c3ccccc3)[C@]3(O)C[C@H](OC(=O)[C@H](O)[C@@H](NC(=O)c4ccccc4)c4ccccc4)C(C)=C1C3(C)C)[C@]1(OC(C)=O)CO[C@@H]1C[C@@H]2O [Paclitaxcel, paclitaxcel] |  |  | 30 | ^c289 ± 108 mg | 30 | 866 ± 348 | inhibited tumor cell growth | not significantly suppressed versus control
